The source of these data is ChEMBL document CHEMBL5512614, “Annual review of PROTAC degraders as anticancer agents in 2022” (Eur J Med Chem, 2024).

One may read the IC50 as the concentration that gives 50% inhibition. For orientation: DC50 means the concentration giving 50% degradation. By GI50 is commonly meant the concentration that inhibits growth by half. The low end stands for more potent growth inhibition, the high end for less potent growth inhibition. The term half-life denotes the time needed for the level to fall by half in the phase considered.

For data set [1], the system named is CWR22R. The data set can be described thus: Inhibition of cell growth in human 22Rv1 cells. Format: functional, cell-based.
Data set [2] has as its target Cyclin-dependent kinase 9 (Homo sapiens, UniProt P50750). The data set can be described thus: Induction of CDK9 degradation in human 22Rv1 cells. The format is cell-based.
For data set [3], the target named is Cyclin-T1 (Homo sapiens, UniProt O60563). The data set is described as follows: Induction of Cyclin T1 degradation in human 22Rv1 cells. The format is cell-based.
The target in data set [4] is RAC-alpha serine/threonine-protein kinase (Homo sapiens, UniProt P31749). The data set can be described thus: Inhibition of AKT1 (unknown origin).
The target in data set [5] is RAC-beta serine/threonine-protein kinase (Homo sapiens, UniProt P31751). The data set can be described thus: Inhibition of AKT2 (unknown origin).
Data set [6] deals with RAC-gamma serine/threonine-protein kinase (Homo sapiens, UniProt Q9Y243). The data set is described as follows: Inhibition of AKT3 (unknown origin).
For data set [7], the target named is von Hippel-Lindau disease tumor suppressor/AKT (Homo sapiens, UniProt P31751+Q9Y243+P31749+P40337). The data set is described as follows: PROTAC activity at VHL/AKT in human SW620 cells assessed as protein degradation. The format is cell-based.
The subject of data set [8] is SW-620. The data set can be described thus: Inhibition of cell growth in human SW620 cells. The format is functional.
For data set [9], the target named is von Hippel-Lindau disease tumor suppressor/GTPase KRas (Homo sapiens, UniProt P01116+P40337, G12C). The data set is described as follows: PROTAC activity at VHL/KRAS G12C mutant in human NCI-H2030 cells assessed as protein degradation incubated for 24 hrs by Western blot analysis. The format is cell-based. In general terms: Immunoblotting shows a protein as a band on a membrane.

Data set [10] has as its target T1, Epidermal growth factor receptor (Homo sapiens, UniProt P00533). The data set can be described thus: Inhibition of wild-type EGFR in human A549 cells. Format: cell-based.
For data set [11], the target named is T1, Epidermal growth factor receptor. The data set is described as follows: Inhibition of wild-type EGFR in human A-431 cells. Format: cell-based.
A short description of data set [12]: Inhibition of EGFR L858R/790M mutant in human NCI-H1975 cells. Format: cell-based.
Data set [13] deals with von Hippel-Lindau disease tumor suppressor/Epidermal growth factor receptor (Homo sapiens, UniProt P00533+P40337). The data set is described as follows: PROTAC activity at VHL/EGFR del19 mutant in human HCC827 cells assessed as protein degradation. The format is cell-based.
The test system of data set [14] is von Hippel-Lindau disease tumor suppressor/Epidermal growth factor receptor (Homo sapiens), P00533+P40337 [UNDEFINED MUTATION]. The data set is described as follows: PROTAC activity at VHL/EGFR del19 mutant in human HCC827 cells assessed as protein degradation relative to control. Format: cell-based.
Data set [15] is described as follows: Inhibition of EGFR del19 mutant in human HCC827 cells. Format: cell-based.
The target in data set [16] is Bromodomain-containing protein 4 (Homo sapiens, UniProt O60885). The data set can be described thus: Inhibition of BRD4 in HEK293T cells. The format is cell-based.
Data set [17] has as its target T2, Protein fem-1 homolog B/Bromodomain-containing protein 4 (Homo sapiens, UniProt O60885+Q9UK73). The data set can be described thus: PROTAC activity at FEM1B/BRD4 in HEK293T cells assessed as protein degradation relative to control. The format is cell-based.
The target in data set [18] is T2, Protein fem-1 homolog B/Bromodomain-containing protein 4. The data set is described as follows: PROTAC activity at FEM1B/BRD4 in HEK293T cells assessed as protein degradation. Format: cell-based.
Data set [19] has as its target Focal adhesion kinase 1 (Homo sapiens, UniProt Q05397). The data set is described as follows: Inhibition of FAK (unknown origin) incubated for 50 mins in presence of substrate/ATP by HTRF assay.
Data set [20] has as its target Protein cereblon/Focal adhesion kinase 1 (Homo sapiens) (UniProt Q05397+Q96SW2). The data set can be described thus: PROTAC activity at CRBN/FAK in human A549 cells assessed as protein degradation at 10 nM incubated for 12 hrs by Western blot analysis relative to control. Format: cell-based.
Data set [21] can be described thus: Stability in human plasma assessed as half life at 2 uM incubated for 120 mins by LC-MS/MS analysis. The format is ADME, cell-free.

T2 sequence (Q9UK73 whole entry, looked up, other chains not shown): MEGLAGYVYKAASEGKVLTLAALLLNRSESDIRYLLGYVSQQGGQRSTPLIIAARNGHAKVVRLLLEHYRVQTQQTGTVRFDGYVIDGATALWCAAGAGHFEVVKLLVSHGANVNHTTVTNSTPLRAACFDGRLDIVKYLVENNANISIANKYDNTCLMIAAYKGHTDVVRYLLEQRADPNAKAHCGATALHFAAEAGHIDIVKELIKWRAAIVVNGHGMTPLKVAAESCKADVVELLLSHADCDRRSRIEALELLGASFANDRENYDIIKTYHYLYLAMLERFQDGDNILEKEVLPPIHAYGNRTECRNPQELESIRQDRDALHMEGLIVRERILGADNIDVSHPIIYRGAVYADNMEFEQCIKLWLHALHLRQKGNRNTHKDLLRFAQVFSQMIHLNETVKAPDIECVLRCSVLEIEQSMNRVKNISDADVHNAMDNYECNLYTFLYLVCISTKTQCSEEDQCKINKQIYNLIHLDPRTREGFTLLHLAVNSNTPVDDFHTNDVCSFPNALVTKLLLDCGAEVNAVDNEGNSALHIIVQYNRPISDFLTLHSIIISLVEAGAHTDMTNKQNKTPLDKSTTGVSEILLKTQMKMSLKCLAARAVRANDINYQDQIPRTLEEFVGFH
T1 sequence (P00533 whole entry): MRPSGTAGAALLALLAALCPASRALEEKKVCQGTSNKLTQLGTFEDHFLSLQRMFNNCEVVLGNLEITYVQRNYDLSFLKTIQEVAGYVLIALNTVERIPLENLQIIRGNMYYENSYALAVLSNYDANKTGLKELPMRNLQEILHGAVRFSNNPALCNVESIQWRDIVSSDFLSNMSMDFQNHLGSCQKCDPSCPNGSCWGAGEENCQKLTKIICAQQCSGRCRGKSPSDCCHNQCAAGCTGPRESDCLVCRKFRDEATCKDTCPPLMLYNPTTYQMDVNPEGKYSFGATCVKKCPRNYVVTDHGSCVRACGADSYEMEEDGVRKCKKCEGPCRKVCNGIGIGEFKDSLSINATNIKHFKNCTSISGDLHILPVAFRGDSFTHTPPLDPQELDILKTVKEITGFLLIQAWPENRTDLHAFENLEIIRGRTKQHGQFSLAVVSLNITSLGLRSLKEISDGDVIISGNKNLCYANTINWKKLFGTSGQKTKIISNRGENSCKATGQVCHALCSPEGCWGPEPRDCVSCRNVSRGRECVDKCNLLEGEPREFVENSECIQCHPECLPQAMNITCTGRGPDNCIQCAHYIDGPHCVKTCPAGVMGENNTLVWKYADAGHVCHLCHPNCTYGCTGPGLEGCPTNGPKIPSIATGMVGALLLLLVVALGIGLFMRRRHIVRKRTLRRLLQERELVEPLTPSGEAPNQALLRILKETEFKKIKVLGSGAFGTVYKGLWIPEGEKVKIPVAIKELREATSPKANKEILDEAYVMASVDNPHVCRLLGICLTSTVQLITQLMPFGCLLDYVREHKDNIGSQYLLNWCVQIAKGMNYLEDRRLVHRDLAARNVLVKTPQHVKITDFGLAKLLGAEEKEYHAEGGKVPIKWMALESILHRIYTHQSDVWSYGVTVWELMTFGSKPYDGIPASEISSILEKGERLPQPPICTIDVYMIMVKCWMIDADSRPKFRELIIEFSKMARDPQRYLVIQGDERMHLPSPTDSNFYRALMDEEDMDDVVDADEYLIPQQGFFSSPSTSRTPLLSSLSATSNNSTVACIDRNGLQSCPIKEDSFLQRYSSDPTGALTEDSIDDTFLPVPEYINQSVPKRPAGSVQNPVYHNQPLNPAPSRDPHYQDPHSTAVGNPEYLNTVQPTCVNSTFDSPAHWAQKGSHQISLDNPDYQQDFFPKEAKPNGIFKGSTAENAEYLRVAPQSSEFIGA
RAC-alpha serine/threonine-protein kinase, sequence (P31749 whole entry): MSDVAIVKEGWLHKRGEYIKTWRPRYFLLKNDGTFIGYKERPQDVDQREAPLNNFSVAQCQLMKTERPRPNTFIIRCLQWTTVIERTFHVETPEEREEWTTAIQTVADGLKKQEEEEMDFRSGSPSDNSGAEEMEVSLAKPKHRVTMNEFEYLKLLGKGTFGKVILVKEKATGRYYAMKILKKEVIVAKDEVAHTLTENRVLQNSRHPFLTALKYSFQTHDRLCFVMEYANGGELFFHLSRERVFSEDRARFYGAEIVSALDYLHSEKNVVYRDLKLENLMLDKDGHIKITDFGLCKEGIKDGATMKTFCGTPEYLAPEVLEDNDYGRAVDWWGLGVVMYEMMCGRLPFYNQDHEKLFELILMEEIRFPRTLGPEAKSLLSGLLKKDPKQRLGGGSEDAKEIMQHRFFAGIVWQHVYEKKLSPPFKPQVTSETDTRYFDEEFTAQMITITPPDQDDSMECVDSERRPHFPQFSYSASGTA
Cyclin-dependent kinase 9, sequence (P50750 whole entry): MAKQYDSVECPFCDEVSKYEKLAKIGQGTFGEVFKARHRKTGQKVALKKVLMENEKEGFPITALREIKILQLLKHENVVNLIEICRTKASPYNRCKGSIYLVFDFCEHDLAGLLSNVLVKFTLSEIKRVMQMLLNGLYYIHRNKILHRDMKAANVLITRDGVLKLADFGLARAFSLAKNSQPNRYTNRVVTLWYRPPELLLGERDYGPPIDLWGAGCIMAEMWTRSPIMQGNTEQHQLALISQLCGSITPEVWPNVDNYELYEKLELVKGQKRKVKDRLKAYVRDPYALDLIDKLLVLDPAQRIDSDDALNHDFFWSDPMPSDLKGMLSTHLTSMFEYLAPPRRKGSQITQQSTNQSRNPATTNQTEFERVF
RAC-gamma serine/threonine-protein kinase, sequence (Q9Y243 whole entry): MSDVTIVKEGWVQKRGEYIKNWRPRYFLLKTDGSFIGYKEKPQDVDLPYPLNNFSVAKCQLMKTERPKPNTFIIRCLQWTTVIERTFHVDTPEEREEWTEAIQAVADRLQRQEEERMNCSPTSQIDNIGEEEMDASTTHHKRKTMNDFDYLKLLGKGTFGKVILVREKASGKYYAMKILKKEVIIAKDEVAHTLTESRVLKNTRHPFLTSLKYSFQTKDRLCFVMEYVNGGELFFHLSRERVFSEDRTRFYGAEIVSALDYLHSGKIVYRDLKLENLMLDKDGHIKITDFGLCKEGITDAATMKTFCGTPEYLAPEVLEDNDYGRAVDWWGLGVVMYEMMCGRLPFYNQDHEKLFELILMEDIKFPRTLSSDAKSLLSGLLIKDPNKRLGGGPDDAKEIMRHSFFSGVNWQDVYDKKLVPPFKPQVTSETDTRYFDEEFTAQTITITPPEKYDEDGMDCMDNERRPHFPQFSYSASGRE
Cyclin-T1, sequence (O60563 whole entry): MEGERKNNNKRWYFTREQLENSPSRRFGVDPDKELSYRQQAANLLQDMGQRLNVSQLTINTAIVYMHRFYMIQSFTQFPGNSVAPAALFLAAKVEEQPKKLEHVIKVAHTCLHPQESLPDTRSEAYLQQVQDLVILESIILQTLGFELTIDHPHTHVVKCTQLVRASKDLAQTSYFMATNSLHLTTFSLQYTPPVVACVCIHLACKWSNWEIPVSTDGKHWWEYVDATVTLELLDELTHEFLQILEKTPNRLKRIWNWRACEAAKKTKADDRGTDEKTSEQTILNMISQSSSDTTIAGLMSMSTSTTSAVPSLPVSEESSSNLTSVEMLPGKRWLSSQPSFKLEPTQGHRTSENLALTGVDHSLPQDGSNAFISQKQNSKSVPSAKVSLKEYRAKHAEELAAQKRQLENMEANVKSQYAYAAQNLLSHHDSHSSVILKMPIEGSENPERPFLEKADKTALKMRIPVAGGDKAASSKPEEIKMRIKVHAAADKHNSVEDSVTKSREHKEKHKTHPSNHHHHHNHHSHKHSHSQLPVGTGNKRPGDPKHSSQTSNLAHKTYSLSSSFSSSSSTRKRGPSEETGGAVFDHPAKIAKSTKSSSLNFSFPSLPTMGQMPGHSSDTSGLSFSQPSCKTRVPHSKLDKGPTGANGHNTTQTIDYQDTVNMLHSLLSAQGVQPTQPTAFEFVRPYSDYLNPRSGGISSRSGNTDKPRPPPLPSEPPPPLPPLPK
RAC-beta serine/threonine-protein kinase, sequence (P31751 whole entry): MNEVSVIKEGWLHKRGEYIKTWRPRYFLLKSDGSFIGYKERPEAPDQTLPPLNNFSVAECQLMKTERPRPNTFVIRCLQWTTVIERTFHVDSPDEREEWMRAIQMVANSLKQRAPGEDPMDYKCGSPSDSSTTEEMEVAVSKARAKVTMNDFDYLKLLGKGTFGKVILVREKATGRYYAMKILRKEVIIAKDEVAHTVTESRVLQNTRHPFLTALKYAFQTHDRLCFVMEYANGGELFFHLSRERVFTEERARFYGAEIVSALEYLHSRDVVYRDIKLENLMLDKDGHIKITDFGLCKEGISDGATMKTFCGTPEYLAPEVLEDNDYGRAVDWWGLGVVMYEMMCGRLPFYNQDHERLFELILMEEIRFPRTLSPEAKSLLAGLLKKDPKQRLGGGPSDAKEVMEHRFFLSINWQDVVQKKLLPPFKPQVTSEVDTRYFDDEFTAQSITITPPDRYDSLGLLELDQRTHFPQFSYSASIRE
von Hippel-Lindau disease tumor suppressor/GTPase KRas, sequence (P01116 whole entry G12C, stated change not applied): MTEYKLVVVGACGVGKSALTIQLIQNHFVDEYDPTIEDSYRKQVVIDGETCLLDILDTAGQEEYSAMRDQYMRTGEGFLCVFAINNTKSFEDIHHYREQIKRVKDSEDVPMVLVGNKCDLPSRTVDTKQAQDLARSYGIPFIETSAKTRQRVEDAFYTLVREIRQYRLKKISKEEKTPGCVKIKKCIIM
von Hippel-Lindau disease tumor suppressor/GTPase KRas, sequence (P40337 whole entry, stated change not applied): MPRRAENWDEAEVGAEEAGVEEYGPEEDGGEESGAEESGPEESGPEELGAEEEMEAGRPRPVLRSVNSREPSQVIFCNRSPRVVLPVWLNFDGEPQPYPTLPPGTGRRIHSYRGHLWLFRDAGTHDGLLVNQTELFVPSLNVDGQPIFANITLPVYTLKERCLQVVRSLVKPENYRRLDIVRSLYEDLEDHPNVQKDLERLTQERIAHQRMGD

In data set [1], `CC1CCC(C(C)C)C(OCC(=O)NCCS(=O)(=O)N2CCC(C(=O)Nc3ncc(SCc4ncc(C(C)(C)C)o4)s3)CC2)C1` (stereo unspecified) had an IC50 of 95 nM. For the same molecule, the figures for the DC50 in data set [2] and in [3] were 62 nM and 589 nM, respectively.
As to `Cc1ncsc1-c1ccc(C(C)NC(=O)C2CC(O)CN2C(=O)C(NC(=O)CCCCCCCCCCNC(=O)CCc2cccc(-c3ccc4nc(-c5cccnc5N)n(-c5ccc(C6(N)CCC6)cc5)c4n3)c2)C(C)(C)C)cc1` (stereo unspecified), the IC50 in [4] is 798 nM; in [5], 90 nM; in [6], 544 nM. In addition, in data set [7], the DC50 amounted to 23 nM. In data set [8], this molecule gave a GI50 of 3100 nM.
Take `C=C(F)C(=O)N1CCN(c2nc(OC[C@@H]3CCCN3CCCOCCC(=O)N[C@H](C(=O)N3CC(O)C[C@H]3C(=O)NCc3ccc(-c4scnc4C)cc3)C(C)(C)C)nc3c2CCN(c2cccc4cccc(Cl)c24)C3)C[C@@H]1CC#N` (stereo partly specified): the half-maximal degradation concentration (DC50) in data set [9] was found to be 590 nM.
With `Cc1ncsc1-c1ccc(CNC(=O)C2CC(O)CN2C(=O)C(NC(=O)CCCCCCCCCCn2cc(COc3cc4ncnc(Nc5ccc(F)c(Cl)c5)c4cc3NC(=O)/C=C/CN3CCCCC3)nn2)C(C)(C)C)cc1` (stereo unspecified), the IC50 was greater than 20000 nM in data set [10], greater than 20000 nM in data set [11], greater than 20000 nM in data set [12] and 6 nM in data set [15]. Also, in data set [13], the DC50 was 3.57 nM. Further, the Emax in data set [14] was 91%.
In turn, `Cc1sc2c(c1C)C(c1ccc(Cl)cc1)=N[C@H](CC(=O)NCCCCCNC(=O)CN1CCOc3cc(N(CCC#N)C(=O)CCl)ccc31)c1nnc(C)n1-2` came in with an IC50 in data set [16] of 1400 nM. In data set [17], the Emax turned out to be 94%. In data set [18], the DC50 stood at 250 nM.
In the case of `CN(c1ncccc1CNc1nc(Nc2ccc(N3CCN(CCCCCCC(=O)NCCNc4cccc5c4C(=O)N(C4CCC(=O)NC4=O)C5=O)CC3)cc2)ncc1C(F)(F)F)S(C)(=O)=O` (stereo unspecified), in data set [19], the IC50 turned out to be 26.4 nM. Besides, the Emax in [20] came out at 85%. In data set [21], the half-life at 2 µM was greater than 3.25 h.
